Assay results published in patent US20230416225A1, “DIAMINOPYRIMIDINE CARBOXAMIDE INHIBITORS OF HPK1” (MERCK SHARP & DOHME LLC, priority 2020, published 2023).

Target: T1, Human HPK1, catalytic domain (Homo sapiens, UniProt Q92918)
T1 construct: purchased Carna
T1 sequence (Q92918 1-346): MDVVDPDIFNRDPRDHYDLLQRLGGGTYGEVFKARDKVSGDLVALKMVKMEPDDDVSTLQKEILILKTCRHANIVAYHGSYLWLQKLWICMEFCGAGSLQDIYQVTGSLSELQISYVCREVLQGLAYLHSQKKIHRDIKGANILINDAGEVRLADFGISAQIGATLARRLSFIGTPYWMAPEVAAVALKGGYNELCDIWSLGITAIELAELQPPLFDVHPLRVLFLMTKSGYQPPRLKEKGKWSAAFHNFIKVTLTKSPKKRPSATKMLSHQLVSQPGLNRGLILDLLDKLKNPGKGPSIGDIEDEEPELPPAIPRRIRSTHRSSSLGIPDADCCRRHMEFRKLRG
Assay: HPK1-SLP76 TR-FRET assay
Type: biochemical
Settings: 75 pM HPK1, 10 uM ATP, 10 nM SLP76, 30 min compound pre-incubation

| IC50 [nM] | Compound |
| --- | --- |
| 4.57 | COc1cc2c(cc1Nc1ncc(C(N)=O)c(Nc3ccccc3Br)n1)CN(C1CC(C#N)C1)CC2 (centres unmarked) [Example 9-6, 4-((2-bromophenyl)amino)-2-((2-(3-cyanocyclobutyl)-6-methoxy-1,2,3,4-tetrahydroisoquinolin-7-yl)amino)pyrimidine-5-carboxamide] |
| 0.84 | COc1cc2c(cc1Nc1ncc(C(N)=O)c(Nc3ccccc3Br)n1)CN(C1CCOCC1)CC2 [Example 9-7, 4-[(2-bromophenyl)amino]-2-{[6-methoxy-2-(oxan-4-yl)-1,2,3,4-tetrahydroisoquinolin-7-yl]amino}pyrimidine-5-carboxamide] |
| 16.4 | COc1cc2c(cc1Nc1ncc(C(N)=O)c(Nc3ccccc3Br)n1)CN(C(C)C)CC2 [Example 9-8, 4-[(2-bromophenyl)amino]-2-{[6-methoxy-2-(propan-2-yl)-1,2,3,4-tetrahydroisoquinolin-7-yl]amino}pyrimidine-5-carboxamide] |
| 3.27 | COc1cc2c(cc1Nc1ncc(C(N)=O)c(Nc3ccccc3Br)n1)CN(C1CC(OC)C1)CC2 (centres unmarked) [Example 9-9, 4-[(2-bromophenyl)amino]-2-{[6-methoxy-2-(3-methoxycyclobutyl)-1,2,3,4-tetrahydroisoquinolin-7-yl]amino}pyrimidine-5-carboxamide] |
| 1.6 | COc1cc2c(cc1Nc1ncc(C(N)=O)c(Nc3ccccc3Br)n1)CN(C1CC(C(=O)O)C1)CC2 (centres unmarked) [Example 9-10, 3-[7-({4-[(2-bromophenyl)amino]-5-carbamoylpyrimidin-2-yl}amino)-6-methoxy-3,4-dihydroisoquinolin-2(1H)-yl]cyclobutane-1-carboxylic acid] |
| 0.79 | COc1cc2c(cc1Nc1ncc(C(N)=O)c(Nc3c(F)cccc3F)n1)CNCC2 [Example 9-11, 4-(2,6-difluoroanilino)-2-[(6-methoxy-1,2,3,4-tetrahydroisoquinolin-7-yl)amino]pyrimidine-5-carboxamide] |
| 1.83 | COc1cc2c(cc1Nc1ncc(C(N)=O)c(Nc3c(F)cc(I)cc3F)n1)CNCC2 [Example 9-12, 4-(2,6-difluoro-4-iodoanilino)-2-[(6-methoxy-1,2,3,4-tetrahydroisoquinolin-7-yl)amino]pyrimidine-5-carboxamide] |
| 0.44 | COCCN1CCc2cc(OC)c(Nc3ncc(C(N)=O)c(Nc4ccccc4Br)n3)cc2C1 [Example 10-1, 4-[(2-bromophenyl)amino]-2-{[6-methoxy-2-(2-methoxyethyl)-1,2,3,4-tetrahydroisoquinolin-7-yl]amino}pyrimidine-5-carboxamide] |
| 246 | COc1cc2c(cc1Nc1ncc(C(N)=O)c(Nc3ccccc3Br)n1)CN(CC(F)(F)F)CC2 [Example 10-2, 4-((2-bromophenyl)amino)-2-((6-methoxy-2-(2,2,2--trifluoroethyl)-1,2,3,4-tetrahydroisoquinolin-7-yl)amino)pyrimidine-5-carboxamide] |
| 28.9 | COc1cc2c(cc1Nc1ncc(C(N)=O)c(Nc3ccccc3Br)n1)CN(CC(F)F)CC2 [Example 10-3, 4-((2-bromophenyl)amino)-2-((2-(2,2-difluoroethyl)-6-methoxy-1,2,3,4-tetrahydroisoquinolin-7-yl)amino)pyrimidine-5-carboxamide] |
| 67.1 | C=CCCCN1CCc2cc(OC)c(Nc3ncc(C(N)=O)c(Nc4c(F)cc(Br)cc4F)n3)cc2C1 [Example 10-4, 4-(4-bromo-2,6-difluoroanilino)-2-{[6-methoxy-2-(pent-4-en-1-yl)-1,2,3,4-tetrahydroisoquinolin-7-yl]amino}pyrimidine-5-carboxamide] |
| 43.2 | COc1cc2c(cc1Nc1ncc(C(N)=O)c(Nc3ccccc3Br)n1)CN(S(C)(=O)=O)CC2 [Example 10-5, 4-[(2-bromophenyl)amino]-2-{[6-methoxy-2-(methylsulfonyl)-1,2,3,4-tetrahydroisoquinolin-7-yl]amino}pyrimidine-5-carboxamide] |
| 41.6 | CCS(=O)(=O)N1CCc2cc(OC)c(Nc3ncc(C(N)=O)c(Nc4ccccc4Br)n3)cc2C1 [Example 10-6, 4-[(2-bromophenyl)amino]-2-{[2-(ethylsulfonyl)-6-methoxy-1,2,3,4-tetrahydroisoquinolin-7-yl]amino}pyrimidine-5-carboxamide] |
| 52.6 | COc1cc2c(cc1Nc1ncc(C(N)=O)c(Nc3ccccc3Br)n1)CN(S(=O)(=O)C(C)C)CC2 [Example 10-7, 4-[(2-bromophenyl)amino]-2-({6-methoxy-2-[(propan-2-yl)sulfonyl]-1,2,3,4-tetrahydroisoquinolin-7-yl}amino)pyrimidine-5-carboxamide] |
| 845 | COc1cc2c(cc1Nc1ncc(C(N)=O)c(Nc3ccccc3Br)n1)CN(S(=O)(=O)C1CC1)CC2 [Example 10-8, 4-[(2-bromophenyl)amino]-2-{[2-(cyclopropylsulfonyl)-6-methoxy-1,2,3,4-tetrahydroisoquinolin-7-yl]amino}pyrimidine-5-carboxamide] |
| 869 | COc1cc(C(=O)N2CCN(C)CC2)ccc1Nc1ncc(C(N)=O)c(Nc2ccccc2C(F)(F)F)n1 [Example 11-1, 2-((2-methoxy-4-(4-methylpiperazine-1-carbonyl)phenyl)amino)-4-((2-(trifluoromethyl)phenyl)amino)pyrimidine-5-carboxamide] |
| 199 | COc1cc(C(=O)N2CCC(N(C)C)C2)ccc1Nc1ncc(C(N)=O)c(Nc2ccccc2C(F)(F)F)n1 (centres unmarked) [Example 11-2, 2-((4-(3-(dimethylamino)pyrrolidine-1-carbonyl)-2-methoxyphenyl)amino)-4-((2-(trifluoromethyl)phenyl)amino)pyrimidine-5-carboxamide] |
| 117 | COCCOCCOCC(=O)N1CCc2cc(OC)c(Nc3ncc(C(N)=O)c(Nc4ccccc4Br)n3)cc2C1 [Example 12-1, 4-[(2-bromophenyl)amino]-2-[(6-methoxy-2-{[2-(2-methoxyethoxy)ethoxy)accetyl}-1,2,3,4-tetrahydroisoquinolin-7-yl)amino]pyrimidine-5-carboxamide] |
| 244 | COc1cc2c(cc1Nc1ncc(C(N)=O)c(Nc3ccccc3Br)n1)CN(C(C)=O)CC2 [Example 12-2, 2-[(2-acetyl-6-methoxy-1,2,3,4-tetrahydroisoquinolin-7-yl)amino]-4-[(2-bromophenyl)amino]pyrimidine-5-carboxamide] |
| 598 | COc1cc2c(cc1Nc1ncc(C(N)=O)c(Nc3ccccc3Br)n1)CN(C(=O)C(C)C)CC2 [Example 12-3, 4-[(2-bromophenyl)amino]-2-{[6-methoxy-2-(2-methylpropanoyl)-1,2,3,4-tetrahydroisoquinolin-7-yl]amino}pyrimidine-5-carboxamide] |
| 380 | COCCC(=O)N1CCc2cc(OC)c(Nc3ncc(C(N)=O)c(Nc4ccccc4Br)n3)cc2C1 [Example 12-4, 4-[(2-bromophenyl)amino]-2-{[6-methoxy-2-(3-methoxypropanoyl)-1,2,3,4-tetrahydroisoquinolin-7-yl]amino}pyrimidine-5-carboxamide] |
| 112 | COCC(=O)N1CCc2cc(OC)c(Nc3ncc(C(N)=O)c(Nc4ccccc4Br)n3)cc2C1 [Example 12-5, 4-[(2-bromophenyl)amino]-2-{[6-methoxy-2-(methoxyacetyl)-1,2,3,4-tetrahydroisoquinolin-7-yl]amino}pyrimidine-5-carboxamide] |
| 27.7 | COc1cc2c(cc1Nc1ncc(C(N)=O)c(Nc3ccccc3Br)n1)CN(C(=O)C1(C(F)(F)F)CCC1)CC2 [Example 12-6, 4-[(2-bromophenyl)amino]-2-({6-methoxy-2-[1-(trifluoromethyl)cyclobutane-1-carbonyl]-1,2,3,4-tetrahydroisoquinolin-7-yl}amino)pyrimidine-5-carboxamide] |
| 1.96 | COc1cc2c(cc1Nc1ncc(C(N)=O)c(Nc3ccccc3Br)n1)CN(C(=O)C1(N(C)C)CCC1)CC2 [Example 12-7, 4-[(2-bromophenyl)amino]-2-({2-[1-(dimethylamino)cyclobutane-1-carbonyl]-6-methoxy-1,2,3,4-tetrahydroisoquinolin-7-yl}amino)pyrimidine-5-carboxamide] |
| 344 | COc1cc2c(cc1Nc1ncc(C(N)=O)c(Nc3ccccc3Br)n1)CN(C(=O)C1(C)CCC1)CC2 [Example 12-8, 4-[(2-bromophenyl)amino]-2-{[6-methoxy-2-(1-methylcyclobutane-1-carbonyl)-1,2,3,4-tetrahydroisoquinolin-7-yl]amino}pyrimidine-5-carboxamide] |
| 172 | COc1cc2c(cc1Nc1ncc(C(N)=O)c(Nc3ccccc3Br)n1)CN(C(=O)C1CCC1)CC2 [Example 12-9, 4-[(2-bromophenyl)amino]-2-{[2-(cyclobutanecarbonyl)-6-methoxy-1,2,3,4-tetrahydroisoquinolin-7-yl]amino}pyrimidine-5-carboxamide] |
| 186 | COc1cc2c(cc1Nc1ncc(C(N)=O)c(Nc3ccccc3Br)n1)CN(C(=O)C1CCC1(F)F)CC2 (centres unmarked) [Example 12-10, 4-[(2-bromophenyl)amino]-2-{[2-(2,2-difluorocyclobutane-1-carbonyl)-6-methoxy-1,2,3,4-tetrahydroisoquinolin-7-yl]amino}pyrimidine-5-carboxamide] |
| 11.1 | COc1cc2c(cc1Nc1ncc(C(N)=O)c(Nc3ccccc3Br)n1)CN(C(=O)CC(F)(F)F)CC2 [Example 12-11, 4-[(2-bromophenyl)amino]-2-{[6-methoxy-2-(3,3,3-trifluoropropanoyl)-1,2,3,4-tetrahydroisoquinolin-7-yl]amino}pyrimidine-5-carboxamide] |
| 284 | COC(=O)N1CCc2cc(OC)c(Nc3ncc(C(N)=O)c(Nc4ccccc4Br)n3)cc2C1 [Example 12-12, methyl 7-({4-[(2-bromophenyl)amino]-5-carbamoylpyrimidin-2-yl}amino)-6-methoxy-3,4-dihydroisoquinoline-2(1H)-carboxylate] |
